Data from the supplement of paper PMC10331698.
± gives the standard deviation of the averaged measurements.

Columns and labels:
Assay in all cases: level (log10 ratio to DMSO vehicle control); higher = higher biomarker level / cell amount than vehicle control
[1] = compound: O=C(O)C=C(C(F)(F)F)C(F)(F)F [3,3-Bis(trifluoromethyl)-2-propenoic acid] (in DMSO)
Protocol: (§1)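 BioMAP Diversity Plus panel of 12 human primary cell co-culture systems (3C, 4H, LPS, SAg, BT, BF4T, BE3C, CASM3C, HDF3CGF, KF3CT, MyoF, Mphg). Compounds were added 1 h before stimulation and left for 24 h (MyoF 48 h; BT 72 h for soluble read-outs or 6 d for IgG). Biomarkers were read by ELISA, cytotoxicity by SRB, PBMC viability and proliferation by Alamar Blue. Each well value was divided by the mean of 8 DMSO control wells on the same plate and log10 transformed; duplicate blinded samples were tested at 4 concentrations.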

[2] = compound: O=C(O)C(F)(F)C(F)(F)C(F)(F)OC(F)(F)F [Perfluoro(4-methoxybutanoic) acid] (in DMSO)
Protocol: as §1

[3] = compound: CO[Si](C)(CCC(F)(F)C(F)(F)C(F)(F)C(F)(F)C(F)(F)C(F)(F)F)OC [Dimethoxymethyl((perfluorohexyl)ethyl)silane] (in DMSO)
Protocol: as §1

[4] = compound: O=C(O)C(F)(OC(F)(F)C(F)(F)C(F)(F)F)C(F)(F)F [Ammonium perfluoro-2-methyl-3-oxahexanoate] (in Water)
Protocol: as §1

[5] = compound: CN(C(=O)C(F)(F)C(F)(F)C(F)(F)F)[Si](C)(C)C [N-Methyl-N-trimethylsilylheptafluorobutyramide] (in DMSO)
Protocol: as §1

[6] = compound: O=S(=O)(O)CCC(F)(F)C(F)(F)C(F)(F)C(F)(F)C(F)(F)C(F)(F)C(F)(F)C(F)(F)F [8:2 Fluorotelomer sulfonic acid] (in DMSO)
Protocol: as §1

[7] = compound: OCC(F)(F)C(F)(F)C(F)(F)C(F)(F)C(F)(F)C(F)(F)CO [1H,1H,8H,8H-Perfluorooctane-1,8-diol] (in DMSO)
Protocol: as §1

Test System	level (log10) ([1]; 6700 nM)	level (log10) ([1]; 20000 nM)	level (log10) ([1]; 60000 nM)	level (log10) ([2]; 6700 nM)	level (log10) ([2]; 20000 nM)	level (log10) ([2]; 60000 nM)	level (log10) ([3]; 6700 nM)	level (log10) ([3]; 20000 nM)	level (log10) ([4]; 6700 nM)	level (log10) ([4]; 20000 nM)	level (log10) ([4]; 60000 nM)	level (log10) ([5]; 6700 nM)	level (log10) ([5]; 20000 nM)	level (log10) ([5]; 60000 nM)	level (log10) ([6]; 6700 nM)	level (log10) ([6]; 20000 nM)	level (log10) ([6]; 60000 nM)	level (log10) ([7]; 6700 nM)	level (log10) ([7]; 20000 nM)	level (log10) ([7]; 60000 nM)
BT:Secreted IgG	0.0155 ± 0.005	-0.0375 ± 0.052	-0.597 ± 0.16	-0.0045 ± 0.03	0.026 ± 0.047	-0.0125 ± 0.0064	0.0505 ± 0.0078	0.021 ± 0.018	-0.12 ± 0.07	-0.113 ± 0.059	-0.156	0.01 ± 0.011	0.016 ± 0.03	0.013 ± 0.048	0.032 ± 0.0099	-0.014 ± 0.031	-0.025 ± 0.014	-0.0265 ± 0.016	-0.0095 ± 0.016	-0.098 ± 0.0099
BT:sIL-2	-0.297 ± 0.042	-0.529 ± 0.02	-0.648 ± 0.072	-0.013 ± 0.0028	-0.006 ± 0.052	0.029 ± 0.051	-0.0455 ± 0.12	0.0425 ± 0.026	-0.093 ± 0.0099	-0.0525 ± 0.015	-0.124 ± 0.028	-0.0665 ± 0.013	-0.0325 ± 0.056	0.045 ± 0.042	-0.023 ± 0.073	0.0195 ± 0.057	0.009 ± 0.011	0.0065 ± 0.063	0.008 ± 0.027	0.0055 ± 0.04
BT:sIL-6	0.035 ± 0.037	-0.0575 ± 0.026	-0.182 ± 0.018	0.042 ± 0.089	0.0225 ± 0.071	-0.061 ± 0.038	-0.038 ± 0.076	0.0465 ± 0.14	-0.0915 ± 0.0035	-0.0905 ± 0.021	-0.151 ± 0.014	-0.054 ± 0.021	-0.0635 ± 0.0035	0.002 ± 0.02	0.015 ± 0.035	0.0445 ± 0.015	-0.005 ± 0.085	-0.029 ± 0.045	-0.078 ± 0.016	-0.216 ± 0.054
BT:sIL-17A	0.0535 ± 0.043	-0.246 ± 0.1	-0.482 ± 0.0028	-0.082 ± 0.0028	-0.0755 ± 0.083	0.0425 ± 0.16	-0.0265 ± 0.029	-0.025 ± 0.17	0.001 ± 0.02	0.036 ± 0.037	-0.174 ± 0.096	-0.0195 ± 0.073	-0.192 ± 0.11	0.071 ± 0.0042	-0.152 ± 0.057	-0.012 ± 0.013	-0.0805 ± 0.16	-0.0535 ± 0.14	-0.25 ± 0.073	-0.393 ± 0.085
BT:sIL-17F	-0.258 ± 0.031	-0.426 ± 0.16	-0.672 ± 0.021	-0.0085 ± 0.059	0.07 ± 0.017	-0.037 ± 0.073	0.074 ± 0.0014	0.102 ± 0.064	0.111 ± 0.016	0.116 ± 0.012	0.0455 ± 0.012	-0.017 ± 0.027	-0.008 ± 0.13	0.0005 ± 0.07	-0.0295 ± 0.091	0.053 ± 0.0071	0.018	-0.0015 ± 0.03	-0.158 ± 0.12	-0.208 ± 0.0092
BT:sTNF-alpha	-0.047 ± 0.034	-0.184 ± 0.04	-0.637 ± 0.093	-0.028 ± 0.0042	-0.0245 ± 0.046	0.0445 ± 0.016	-0.0935 ± 0.15	0.094 ± 0.11	-0.035 ± 0.037	0.013 ± 0.034	0.0045 ± 0.093	-0.014 ± 0.062	-0.0875 ± 0.054	0.079 ± 0.13	0.006 ± 0.095	0 ± 0.0071	0.009 ± 0.034	-0.057 ± 0.045	-0.0705 ± 0.036	-0.097 ± 0.18
LPS:CCL2/MCP-1	0.0015 ± 0.00071	-0.0145 ± 0.0035	-0.02 ± 0.03	0.004 ± 0.013	-0.001 ± 0.024	0.025 ± 0.058	-0.0155 ± 0.028	0.013 ± 0.048	0.0325 ± 0.033	-0.017 ± 0.023	-0.001 ± 0.0014	-0.0085 ± 0.0021	-0.012 ± 0.013	-0.0005 ± 0.023	0.0135 ± 0.023	0.016 ± 0.0028	-0.055 ± 0.045	-0.004 ± 0.018	-0.0115 ± 0.018	-0.0135 ± 0.036
LPS:CD40	-0.055 ± 0.024	-0.061 ± 0.047	-0.184	-0.0385 ± 0.06	0 ± 0.055	-0.0465 ± 0.094	-0.0085 ± 0.029	-0.009 ± 0.025	-0.014 ± 0.018	-0.0145 ± 0.016	-0.045 ± 0.03	-0.023 ± 0.027	-0.0065 ± 0.011	-0.0325 ± 0.025	0.037 ± 0.016	-0.0195 ± 0.021	-0.128 ± 0.024	-0.031 ± 0.0057	-0.0375 ± 0.032	-0.0555 ± 0.049
LPS:CD62E/E-Selectin	-0.013 ± 0.021	-0.025 ± 0.0071	-0.0345 ± 0.005	-0.009 ± 0.0099	-0.007 ± 0.014	-0.002	0.0135 ± 0.011	0.01 ± 0.0099	-0.0115 ± 0.0078	-0.005 ± 0.016	-0.004 ± 0.0085	0.0095 ± 0.026	0.002 ± 0.014	0.0105 ± 0.054	0.0235 ± 0.06	0.033 ± 0.02	0.082 ± 0.025	-0.0495 ± 0.013	-0.0295 ± 0.022	-0.044 ± 0.024
LPS:CD69	-0.072 ± 0.02	-0.0565 ± 0.057	-0.028 ± 0.09	0.02 ± 0.11	0.0405 ± 0.12	0.0255 ± 0.086	-0.046 ± 0.013	-0.0265 ± 0.0092	0.03 ± 0.0028	0 ± 0.028	-0.0315 ± 0.04	-0.004 ± 0.011	-0.013 ± 0.041	0.004 ± 0.011	-0.0455 ± 0.06	-0.035 ± 0.071	-0.0835 ± 0.049	0.014 ± 0.0099	-0.006 ± 0.045	-0.0125 ± 0.028
LPS:CD106/VCAM-1	-0.106 ± 0.021	-0.141 ± 0.018	-0.244 ± 0.069	-0.019 ± 0.02	-0.005 ± 0.025	-0.0155 ± 0.019	-0.0105 ± 0.04	0.0095 ± 0.0035	-0.0285 ± 0.016	-0.016 ± 0.0071	-0.0195 ± 0.011	-0.0165 ± 0.0021	-0.0035 ± 0.005	-0.004 ± 0.041	-0.0135 ± 0.073	-0.021 ± 0.065	-0.0535 ± 0.077	-0.008 ± 0.0057	-0.011 ± 0.023	-0.0275 ± 0.018
LPS:CD141/Thrombomodulin	-0.0835 ± 0.093	-0.091 ± 0.14	-0.026 ± 0.12	-0.028 ± 0.023	-0.0285 ± 0.052	-0.0195 ± 0.053	0.024 ± 0.034	0.006 ± 0.016	-0.013 ± 0.031	-0.0025 ± 0.0092	-0.036 ± 0.028	-0.0125 ± 0.0064	-0.014 ± 0.0085	-0.018 ± 0.014	0.007 ± 0.11	0.0505 ± 0.071	0.205 ± 0.016	-0.008 ± 0.027	-0.032 ± 0.0042	0.028 ± 0.034
LPS:CD142/Tissue Factor	0.0165 ± 0.064	-0.023 ± 0.12	-0.036 ± 0.12	-0.0085 ± 0.066	-0.012 ± 0.054	0.016 ± 0.051	0.011 ± 0.048	0.017 ± 0.058	0.0885 ± 0.064	0.0845 ± 0.028	0.075 ± 0.045	0.015 ± 0.065	0.0255 ± 0.1	-0.0085 ± 0.1	0.0005 ± 0.067	0.024 ± 0.088	-0.0025 ± 0.011	0.011 ± 0.1	0.0075 ± 0.033	-0.0095 ± 0.054
